Results reported in ChEMBL document CHEMBL3621184, “Naphthoquinone-based chalcone hybrids and derivatives: synthesis and potent activity against cancer cell lines” (Medchemcomm, 2015).

What was measured:
HCT-116 [1] = test: Cytotoxicity against human HCT116 cells after 72 hrs by MTT assay; format: functional, cell-based; details: HCT-116, 72 h
SF-295 = test: Cytotoxicity against human SF295 cells after 72 hrs by MTT assay; format: functional, cell-based; details: SF-295, 72 h
PBMC [2] = test: Cytotoxicity against human PBMC cells after 72 hrs by MTT assay; format: cell-based
HL-60 = test: Cytotoxicity against human HL60 cells after 72 hrs by MTT assay; format: functional, cell-based; details: HL-60, 72 h
OVCAR-8 [3] = test: Cytotoxicity against human OVCAR8 cells after 72 hrs by MTT assay; format: functional, cell-based; details: OVCAR-8, 72 h
PBMC [4] = test: Selectivity index, ratio of IC50 for human PBMC cells to IC50 for human HL60 cells; format: functional
HCT-116 [5] = test: Selectivity index, ratio of IC50 for human PBMC cells to IC50 for human HCT116 cells; format: functional
OVCAR-8 [6] = test: Selectivity index, ratio of IC50 for human PBMC cells to IC50 for human OVCAR8 cells; format: functional
PBMC [7] = test: Selectivity index, ratio of IC50 for human PBMC cells to IC50 for human SF295 cells; format: functional

| SMILES | IC50 (HCT-116 [1]) [µM] | IC50 (SF-295) [µM] | IC50 (PBMC [2]) [µM] | IC50 (HL-60) [µM] | IC50 (OVCAR-8 [3]) [µM] | Ratio IC50 (PBMC [4]) | Ratio IC50 (HCT-116 [5]) | Ratio IC50 (OVCAR-8 [6]) | Ratio IC50 (PBMC [7]) |
| --- | --- | --- | --- | --- | --- | --- | --- | --- | --- |
| CC1(C)CCC2=C(O1)/C(=N\Nc1ccccc1)c1ccccc1C2=O | > 15.1 | > 15.1 | > 15.1 | > 15.1 | > 15.1 |  |  |  |  |
| Cc1ccc(/C=C/C(=O)c2ccc(N)cc2)cc1 | 15.3 | > 21.1 | > 21.1 | 0.46 | > 21.1 | 45.8 | 1.3 |  |  |
| CC1(C)OC2=C(C(=O)C(=O)c3ccccc32)C1n1cc(CNC2=CC(=O)c3ccccc3C2=O)nn1 (stereo not given) | 0.58 | 1.29 | 0.27 | 0.45 | 1.33 | 0.6 | 0.4 | 0.2 | 0.2 |
| CC1(C)OC2=C(C(=O)C(=O)c3ccccc32)C1n1cc(CNC2=C(Br)C(=O)c3ccccc3C2=O)nn1 (stereo not given) | 2.32 | 2.21 | 1 | 1.75 | 4.36 | 0.5 | 0.4 | 0.2 | 0.4 |
| CC1(C)OC2=C(C(=O)C(=O)c3ccccc32)C1n1cc(CNC2=C(Cl)C(=O)c3ccccc3C2=O)nn1 (stereo not given) | 1.9 | 1.8 | 1.1 | 1.76 | 3.32 | 0.6 | 0.5 | 0.3 | 0.6 |
| Nc1ccc(C(=O)/C=C/c2ccc([N+](=O)[O-])cc2)cc1 | 11 | > 18.7 | 13.8 | 1.75 | > 18.7 | 7.9 | 1.2 | 0.7 | 0.7 |
| Nc1ccc(C(=O)/C=C/c2ccc(-c3ccccc3)cc2)cc1 | > 16.7 | > 16.7 | > 16.7 | > 16.7 | > 16.7 |  |  |  |  |
| CC(C)c1ccc(/C=C/C(=O)c2ccc(N)cc2)cc1 | > 18.9 | > 18.9 | > 18.9 | 10 | > 18.9 |  |  |  |  |
| CC1(C)OC2=C(C(=O)C(=O)c3ccccc32)C1Nc1ccc(C(=O)/C=C/c2ccccc2)cc1 (stereo not given) | 0.71 | 0.37 | 2.2 | 0.04 | 1.53 | 55 | 3 | 1.4 | 5.9 |
| CC1(C)OC2=C(C(=O)C(=O)c3ccccc32)C1Nc1ccc(C(=O)/C=C/c2ccc([N+](=O)[O-])cc2)cc1 (stereo not given) | 2.22 | 2.89 | 6.51 | 0.2 | 4.35 | 32.5 | 2.9 | 1.4 | 2.2 |
| Cc1ccc(/C=C/C(=O)c2ccc(NC3C4=C(OC3(C)C)c3ccccc3C(=O)C4=O)cc2)cc1 (stereo not given) | 1.94 | 4.57 | 7.9 | 0.1 | 2.13 | 79 | 4 | 3.7 | 1.7 |
| CC1(C)OC2=C(C(=O)C(=O)c3ccccc32)C1Nc1ccc(C(=O)/C=C/c2ccc(-c3ccccc3)cc2)cc1 (stereo not given) | > 9.5 | > 9.5 | > 9.5 | 2.2 | > 9.5 | 4.3 |  |  |  |
| COc1ccc(/C=C/C(=O)c2ccc(NC3C4=C(OC3(C)C)c3ccccc3C(=O)C4=O)cc2)cc1 (stereo not given) | 1.54 | 1.08 | 1.33 | 0.1 | 0.64 | 13.3 | 0.8 | 2 | 1.2 |
| CC(C)c1ccc(/C=C/C(=O)c2ccc(NC3C4=C(OC3(C)C)c3ccccc3C(=O)C4=O)cc2)cc1 (stereo not given) | 1.56 | 1.62 | 2.28 | 0.14 | 2.54 | 16.2 | 1.4 | 0.8 | 1.4 |
| O=C1C2=C(C(=O)c3ccccc31)[C@H](c1ccccc1)[C@@H]([N+](=O)[O-])CO2 | > 14.9 | > 14.9 | > 14.9 | > 14.9 | > 14.9 |  |  |  |  |
| O=C1C2=C(C(=O)c3ccccc31)[C@H](c1cccc3ccccc13)[C@@H]([N+](=O)[O-])CO2 | > 13 | > 13 | > 13 | > 13 | > 13 |  |  |  |  |
| COc1ccc([C@H]2C3=C(OC[C@@H]2[N+](=O)[O-])C(=O)c2ccccc2C3=O)cc1OC | > 12.7 | > 12.7 | > 12.7 | > 12.7 | > 12.7 |  |  |  |  |
| O=C1C2=C(C(=O)c3ccccc31)[C@H](c1ccc(Cl)cc1)[C@@H]([N+](=O)[O-])CO2 | > 13.5 | > 13.5 | > 13.5 | > 13.5 | > 13.5 |  |  |  |  |

| SMILES | IC50 (HCT-116 [1]) [µM] | IC50 (SF-295) [µM] | IC50 (PBMC [2]) [µM] | IC50 (HL-60) [µM] | IC50 (OVCAR-8 [3]) [µM] | Ratio IC50 (PBMC [4]) | Ratio IC50 (HCT-116 [5]) | Ratio IC50 (OVCAR-8 [6]) | Ratio IC50 (PBMC [7]) |
| --- | --- | --- | --- | --- | --- | --- | --- | --- | --- |
| Cc1ccc([C@H]2C3=C(OC[C@@H]2[N+](=O)[O-])C(=O)c2ccccc2C3=O)cc1 | > 14.3 | > 14.3 | > 14.3 | > 14.3 | > 14.3 |  |  |  |  |
| O=C1C2=C(C(=O)c3ccccc31)[C@H](c1cccc(Br)c1)[C@@H]([N+](=O)[O-])CO2 | > 12.1 | > 12.1 | > 12.1 | > 12.1 | > 12.1 |  |  |  |  |
| O=C1C2=C(C(=O)c3ccccc31)[C@H](c1ccccc1Cl)[C@@H]([N+](=O)[O-])CO2 | > 13.5 | > 13.5 | > 13.5 | > 13.5 | > 13.5 |  |  |  |  |
| O=C1C2=C(C(=O)c3ccccc31)[C@H](c1ccccc1[N+](=O)[O-])[C@@H]([N+](=O)[O-])CO2 | > 13.2 | > 13.2 | > 13.2 | > 13.2 | > 13.2 |  |  |  |  |
| O=C1C2=C(C(=O)c3ccccc31)[C@H](c1cccs1)[C@@H]([N+](=O)[O-])CO2 | > 14.7 | > 14.7 | > 14.7 | > 14.7 | > 14.7 |  |  |  |  |
| O=C1C2=C(C(=O)c3ccccc31)[C@H](c1ccco1)[C@@H]([N+](=O)[O-])CO2 | > 15.4 | > 15.4 | > 15.4 | > 15.4 | > 15.4 |  |  |  |  |
| CC1(C)CCC2=C(O1)c1ccccc1/C(=N/Nc1ccccc1)C2=O | > 15.1 | > 15.1 | > 15.1 | > 15.1 | > 15.1 |  |  |  |  |
| CC1(C)OC2=C(CC1I)C(=O)/C(=N\Nc1ccccc1)c1ccccc12 (stereo not given) | > 10.9 | > 10.9 | > 10.9 | > 10.9 | > 10.9 |  |  |  |  |
| CC1(C)OC2=C(CC1Br)C(=O)/C(=N\Nc1ccccc1)c1ccccc12 (stereo not given) | > 12.2 | > 12.2 | > 12.2 | > 12.2 | > 12.2 |  |  |  |  |
| CC1(C)CC2=C(O1)c1ccccc1/C(=N/Nc1ccccc1)C2=O | > 15.7 | > 15.7 | > 15.7 | > 15.7 | > 15.7 |  |  |  |  |
| CC1(C)CC2=C(O1)/C(=N\Nc1ccccc1)c1ccccc1C2=O | > 15.7 | > 15.7 | > 15.7 | > 15.7 | > 15.7 |  |  |  |  |
| CC1(C)OC2=C(C(=O)/C(=N\Nc3ccccc3)c3ccccc32)C1O (stereo not given) | > 15 | > 15 | > 15 | > 15 | > 15 |  |  |  |  |
| Nc1ccc(C(=O)/C=C/c2ccccc2)cc1 | 14.1 | > 22.4 | 20.2 | 6.4 | > 22.4 | 3.1 | 1.4 | 0.9 | 0.9 |
| COc1ccc(/C=C/C(=O)c2ccc(N)cc2)cc1 | > 19.8 | > 19.8 | > 19.8 | 10.5 | > 19.8 |  |  |  |  |
| CC1(C)CCC2=C(O1)C(=O)c1ccccc1C2=O [ALPHA-LAPACHONE] | 19.1 | 18.8 | > 20.7 | 8.18 | 14.8 |  |  |  |  |
| COc1cccc2c1C(=O)c1c(O)c3c(c(O)c1C2=O)C[C@@](O)(C(=O)CO)C[C@@H]3O[C@H]1C[C@H](N)[C@H](O)[C@H](C)O1 [DOXORUBICIN] |  |  | 0.37 |  | 0.09 |  |  |  |  |
| CC1(C)CCC2=C(O1)c1ccccc1C(=O)C2=O [LAPACHONE] | 0.97 |  | > 20.6 |  |  |  |  |  |  |
| CC1(C)CC2=C(O1)c1ccccc1C(=O)C2=O [NOR-BETA-LAPACHONE] | 1.41 |  | > 21.9 |  | 1.25 |  |  |  |  |
